The record followed here is PMC8388771, “Cationic Peptidomimetic Amphiphiles Having a N-Aryl- or N-Naphthyl-1,2,3-Triazole Core Structure Targeting Clostridioides (Clostridium) difficile: Synthesis, Antibacterial Evaluation, and an In Vivo C. difficile Infection Model” (Antibiotics, 2021).

Data set [1] is described as follows: Cytotoxicity (CC50) assay by CO-ADD. It counts as cell-based, human. The settings on record: human, HEK293 cells (ATCC CRL-1573); Table 1; cytotoxicity on HEK293 cells, tested at ≤32 µg/mL. An excerpt: (§1) The N-arytriazole and N-naphthyltriazole peptidomimetics were subjected to antimicrobial screening. […] Vancomycin, colistin, fluconazole, and tamoxifen were used as positive controls (see Table 1 for details).
(§2) Secondary screening (MRSA and Gram-negative bacteria) and cytotoxicity assay–performed by the Community for Open Antimicrobial Drug Discovery (CO-ADD). Samples were provided to CO-ADD [29] for antimicrobial screening by whole cell growth inhibition assays.
Cytotoxicity Assay. These were performed as described previously.

Another data set relates to S. aureus ATCC 29213. Kind of data set: Primary MIC assay, S. aureus ATCC 29213. The class given is cell-based. Conditions: Staphylococcus aureus, ATCC29213; Table 1; read-out: MIC S. aureus ATCC 29213. The method, then: as §1
(§3) Primary screening (Gram-positive bacteria). Primary MIC assays were performed as described by the Clinical and Laboratory Standards Institute for aerobic and anaerobic bacteria. MIC values for vancomycin were within acceptable QC ranges.

In data set [2] the test system is E. coli ATCC 25922. Kind of data set: CO-ADD MIC assay, E. coli ATCC 25922. The class given is cell-based. Conditions: Escherichia coli, ATCC25922, Table S1.
Text: as §1, §2
(§4) Bacterial Inhibition–MIC Assay. These were performed as described previously.

For data set [3], the system named is E. coli ATCC 25922. Kind of data set: Primary MIC assay, E. coli ATCC 25922. The class given is cell-based. Conditions: Escherichia coli, ATCC25922; Table 1; read-out: MIC E. coli ATCC 25922.
In another data set the test system is E. faecalis ATCC 29212. In words: Primary MIC assay, E. faecalis ATCC 29212. The class given is cell-based, Enterococcus faecalis. Conditions: Enterococcus faecalis, ATCC29212; Table 1; read-out: MIC E. faecalis ATCC 29212. The method, then: as §1, §3
In a further data set the test system is S. aureus NCTC 10442. Kind of data set: Primary MIC assay, S. aureus NCTC 10442 (MRSA). The class given is cell-based. The settings on record: Staphylococcus aureus; Table 1; MRSA; read-out: MIC S. aureus NCTC 10442. The method, then: as §1, §3
Data set [4] relates to K. pneumoniae ATCC 700603. In words: CO-ADD MIC assay, K. pneumoniae ATCC 700603. Conditions: Klebsiella pneumoniae, ATCC700603, Table S1, multi-drug resistant. The class given is cell-based.
Text: as §1, §2, §4

The subject of another data set is human erythrocytes. In words: Hemolysis assay, HC50 determination. The class given is cell-based. The procedure:
Hemolysis assay (human erythrocytes)–HC50 determination. These were performed as described previously.

Another data set concerns C. difficile ATCC 700057. In words: Primary MIC assay, C. difficile ATCC 700057. It counts as cell-based, Clostridioides difficile. The settings on record: Clostridioides difficile, ATCC700057; Table 1; read-out: MIC C. difficile ATCC 700057. The method, then:
as §1, §3

A further data set has as its system S. aureus ATCC 43300. Kind of data set: CO-ADD MIC assay, S. aureus ATCC 43300 (MRSA). The class given is cell-based. The settings on record: Staphylococcus aureus, Table S1; MRSA; CO-ADD; read-out: MIC S. aureus ATCC 43300.
Text: as §1, §2, §4

The subject of another data set is P. aeruginosa ATCC 27853. In words: CO-ADD MIC assay, P. aeruginosa ATCC 27853. It counts as cell-based. Conditions: Pseudomonas aeruginosa, ATCC27853, Table S1.
Text: as §1, §2, §4

Another data set relates to C. albicans ATCC 90028. In words: CO-ADD MIC assay, C. albicans ATCC 90028. The class given is cell-based. Conditions: Candida albicans, ATCC90028, Table S1.
Text: as §1, §2

For data set [5], the system named is Cryptococcus neoformans var. grubii ATCC 208821. Kind of data set: CO-ADD MIC assay, C. neoformans var. grubii ATCC 208821. Conditions: Cryptococcus neoformans, ATCC208821, Table S1. It counts as cell-based.
Text: as §1, §2

The next data set deals with A. baumannii ATCC 19606. In words: CO-ADD MIC assay, A. baumannii ATCC 19606. It counts as cell-based. Conditions: Acinetobacter baumannii, ATCC19606, Table S1.
Text: as §1, §2, §4

The test system of a further data set is C. difficile 132 (RT027). In words: Primary MIC assay, C. difficile 132 (RT027). Conditions: Clostridioides difficile; Table 1; read-out: MIC C. difficile 132 (RT027). The class given is cell-based, Clostridioides difficile. The method, then:
as §1, §3

The subject of a further data set is S. pneumoniae ATCC 49619. Kind of data set: Primary MIC assay, S. pneumoniae ATCC 49619. The settings on record: Streptococcus pneumoniae, ATCC49619; Table 1; read-out: MIC S. pneumoniae ATCC 49619. The class given is cell-based, Streptococcus pneumoniae. The method, then: as §1, §3
Setting [6] is: Table 1, lysis of human erythrocytes.
Setting [7] is: Table S1, footnote says lysis of sheep erythrocytes.

Values after ≈ are worked out from the molar mass of the structure shown.

Turning to `CC(C)CCc1cn(-c2ccccc2OCC(=O)N[C@H](CCCNC(=N)N)Cn2cc(C3CCCCC3)nn2)nn1` [Compound 10], the CC50 in data set [1] is more than 32 µg/mL. Also, the MIC was 32 µg/mL (≈ 56.7 µM) with S. aureus ATCC 29213; more than 32 µg/mL in the data set on E. coli ATCC 25922 [2]; 128 µg/mL (≈ 227 µM) in the data set with E. coli ATCC 25922 [3]; 32 µg/mL (≈ 56.7 µM) in the data set with E. faecalis ATCC 29212; 32 µg/mL (≈ 56.7 µM) in the data set on S. aureus NCTC 10442; more than 32 µg/mL in data set [4]. The MIC is 32 µg/mL (≈ 56.7 µM) with C. difficile ATCC 700057; 32 µg/mL (≈ 56.7 µM) in the data set on S. aureus ATCC 43300; more than 32 µg/mL against P. aeruginosa ATCC 27853; more than 32 µg/mL in the data set with C. albicans ATCC 90028; 32 µg/mL (≈ 56.7 µM) in data set [5]; more than 32 µg/mL with A. baumannii ATCC 19606. Moreover, the MIC stood at 64 µg/mL (≈ 113 µM) in the data set on C. difficile 132 (RT027) and 16 µg/mL (≈ 28.3 µM) in the data set with S. pneumoniae ATCC 49619. Also, the concentration for 50% haemolysis (HC50) in the data set with human erythrocytes (setting [6]) and in the data set on human erythrocytes (setting [7]) was more than 32 µg/mL each time.

As to `CC(C)CCc1cn(-c2ccccc2OCC(=O)N[C@H](CCCNC(=N)N)Cn2cc(C3CCCC3)nn2)nn1.Cl` [Compound 11], the CC50 in data set [1] is more than 32 µg/mL. Besides, the minimum inhibitory concentration (MIC) was 32 µg/mL in the data set on S. aureus ATCC 29213; more than 32 µg/mL in the data set with E. coli ATCC 25922 [2]; 128 µg/mL in the data set on E. coli ATCC 25922 [3]; 32 µg/mL with E. faecalis ATCC 29212; 32 µg/mL in the data set with S. aureus NCTC 10442; more than 32 µg/mL in data set [4]. Further, the MIC was 32 µg/mL in the data set on C. difficile ATCC 700057; 32 µg/mL in the data set on S. aureus ATCC 43300; more than 32 µg/mL against P. aeruginosa ATCC 27853; more than 32 µg/mL in the data set with C. albicans ATCC 90028; 32 µg/mL in data set [5]; more than 32 µg/mL against A. baumannii ATCC 19606. Besides, the MIC in the data set on C. difficile 132 (RT027) amounted to 64 µg/mL; in the data set on S. pneumoniae ATCC 49619, 16 µg/mL. The HC50 with human erythrocytes (setting [6]) and in the data set on human erythrocytes (setting [7]) was more than 32 µg/mL each time.

`CC(C)CCc1cn(-c2ccccc2OCC(=O)N[C@H](CCCNC(=N)N)Cn2cc(-c3ccc(F)cc3)nn2)nn1.Cl` [Compound 12] yielded a CC50 in data set [1] of more than 32 µg/mL. The MIC is 32 µg/mL with S. aureus ATCC 29213; more than 32 µg/mL in the data set with E. coli ATCC 25922 [2]; 128 µg/mL in the data set on E. coli ATCC 25922 [3]; 32 µg/mL with E. faecalis ATCC 29212; 32 µg/mL with S. aureus NCTC 10442; more than 32 µg/mL in data set [4]. In addition, the minimal inhibitory concentration (MIC) was 32 µg/mL in the data set with C. difficile ATCC 700057; 32 µg/mL in the data set with S. aureus ATCC 43300; more than 32 µg/mL in the data set on P. aeruginosa ATCC 27853; more than 32 µg/mL against C. albicans ATCC 90028; 32 µg/mL in data set [5]; more than 32 µg/mL in the data set on A. baumannii ATCC 19606. In addition, the results for the minimal inhibitory concentration (MIC) with C. difficile 132 (RT027) and in the data set with S. pneumoniae ATCC 49619 were 64 µg/mL and 16 µg/mL, respectively. In addition, the HC50 in the data set with human erythrocytes (setting [6]) and with human erythrocytes (setting [7]) was more than 32 µg/mL throughout.

Regarding `CC(C)CCc1cn(-c2ccccc2OCC(=O)N[C@H](CCCNC(=N)N)Cn2cc(Cc3ccccc3)nn2)nn1.Cl` [Compound 13], the CC50 in data set [1] is more than 32 µg/mL. The MIC with S. aureus ATCC 29213 is 32 µg/mL; in the data set with E. coli ATCC 25922 [2], more than 32 µg/mL; with E. coli ATCC 25922 [3], 128 µg/mL; with E. faecalis ATCC 29212, 32 µg/mL; in the data set on S. aureus NCTC 10442, 32 µg/mL; in [4] it was more than 32 µg/mL. For the same compound, the MIC in the data set on C. difficile ATCC 700057 was 32 µg/mL; in the data set on S. aureus ATCC 43300, 32 µg/mL; in the data set on P. aeruginosa ATCC 27853, more than 32 µg/mL; in the data set with C. albicans ATCC 90028 it was more than 32 µg/mL; in [5], 32 µg/mL; with A. baumannii ATCC 19606 it was more than 32 µg/mL. In addition, the MIC in the data set on C. difficile 132 (RT027) turned out to be 64 µg/mL; in the data set with S. pneumoniae ATCC 49619, 16 µg/mL. Besides, the HC50 with human erythrocytes (setting [6]) and in the data set on human erythrocytes (setting [7]) was more than 32 µg/mL in each case.

In data set [1], `CC(C)CCc1cnnn1-c1ccccc1OCC(=O)N[C@H](CCCNC(=N)N)Cn1cc(C2CCCCC2)nn1` [Compound 14] yielded a CC50 of more than 32 µg/mL. The MIC in the data set with S. aureus ATCC 29213 was 32 µg/mL (≈ 56.7 µM); in the data set on E. coli ATCC 25922 [2], more than 32 µg/mL; in the data set with E. coli ATCC 25922 [3] it was more than 128 µg/mL; with E. faecalis ATCC 29212 it was 32 µg/mL (≈ 56.7 µM); in the data set with S. aureus NCTC 10442 it was 32 µg/mL (≈ 56.7 µM); in data set [4], more than 32 µg/mL. Also, the MIC in the data set with C. difficile ATCC 700057 was 128 µg/mL (≈ 227 µM); in the data set with S. aureus ATCC 43300 it was 32 µg/mL (≈ 56.7 µM); against P. aeruginosa ATCC 27853, more than 32 µg/mL; in the data set on C. albicans ATCC 90028 it was more than 32 µg/mL; in data set [5], 32 µg/mL (≈ 56.7 µM); against A. baumannii ATCC 19606, more than 32 µg/mL. Further, the MIC in the data set with C. difficile 132 (RT027) came to 128 µg/mL (≈ 227 µM); in the data set on S. pneumoniae ATCC 49619, 32 µg/mL (≈ 56.7 µM). Also, the HC50 with human erythrocytes (setting [6]) and in the data set with human erythrocytes (setting [7]) was more than 32 µg/mL in each case.

Broadly, the CC50 is the concentration at which the toxic effect on the cells reaches its halfway point. A higher CC50 goes with better tolerance by the cells. In general, MIC refers to the least concentration at which growth counts as inhibited. The term HC50 denotes the concentration giving 50% haemolysis. A lower HC50 goes with stronger haemolysis.
